# Results from PubChem BioAssay AID248 (DTP/NCI, 2004).
# Where “and” joins values, the source holds several entries; their conditions need not be identical. Equal entries are not always repeated. Toxic doses and inconclusive results are not listed.
# System: L1210 leukemia ip in BDF1 mice, survival T/C
# Assay: NCI In Vivo Anticancer Drug Screen. Data for tumor model L1210 Leukemia (intraperitoneal) in B6D2F1 (BDF1) mice
# Details: endpoint: mean survival time, higher = longer survival
# In short: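 Transplanted-tumor mice were given test agent; controls received vehicle only. Survival readings from the two groups were divided (treated over control).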
# [1] = dose: 100.0 mg/kg/injection, schedule: Q04DX003 (ip), vehicle: Klucel (hydroxypropylcellulose) (HPC)
compound,measurement,setting,value
CC(=O)NC1=C(N2CC2)C(=O)C(NC(C)=O)=C(N2CC2)C1=O,T/C,"dose: 0.01 mg/kg/injection, schedule: Q01DX Z (ip), vehicle: alkali diluted with saline",96 % of control
same,T/C,"dose: 0.03 mg/kg/injection, schedule: Q01DX Z (ip), vehicle: alkali diluted with saline",96 % of control
same,T/C,"dose: 0.06 mg/kg/injection, schedule: Q01DX006 (iv), vehicle: saline",113 % of control
same,T/C,"dose: 0.06 mg/kg/injection, schedule: Q01DX Z (ip), vehicle: alkali diluted with saline",97 % of control and 105 % of control
same,T/C,"dose: 0.06 mg/kg/injection, schedule: Q01DX Z (ip), vehicle: saline",113 % of control
same,T/C,"dose: 0.12 mg/kg/injection, schedule: Q01DX Z (ip), vehicle: alkali diluted with saline",100 % of control and 102 % of control
same,T/C,"dose: 0.12 mg/kg/injection, schedule: Q01DX Z (oral), vehicle: carboxymethylcellulose (CMC)",97 % of control
same,T/C,"dose: 0.13 mg/kg/injection, schedule: Q01DX006 (iv), vehicle: saline",118 % of control
same,T/C,"dose: 0.24 mg/kg/injection, schedule: Q01DX Z (ip), vehicle: alkali diluted with saline",109 % of control
same,T/C,"dose: 0.25 mg/kg/injection, schedule: Q01DX006 (iv), vehicle: saline",108 % of control
same,T/C,"dose: 0.25 mg/kg/injection, schedule: Q01DX Z (im), vehicle: saline",121 % of control
same,T/C,"dose: 0.25 mg/kg/injection, schedule: Q01DX Z (ip), vehicle: saline",159 % of control
same,T/C,"dose: 0.25 mg/kg/injection, schedule: Q01DX Z (oral), vehicle: carboxymethylcellulose (CMC)",101 % of control
same,T/C,"dose: 0.25 mg/kg/injection, schedule: Q01DX Z (sc), vehicle: saline",102 % of control
same,T/C,"dose: 0.38 mg/kg/injection, schedule: Q03DX005 (oral), vehicle: saline",111 % of control
same,T/C,"dose: 0.38 mg/kg/injection, schedule: Q03DX006 (oral), vehicle: saline",106 % of control
same,T/C,"dose: 0.48 mg/kg/injection, schedule: Q01DX Z (ip), vehicle: alkali diluted with saline",97 % of control
same,T/C,"dose: 0.5 mg/kg/injection, schedule: Q01DX Z (ip), vehicle: saline",185 % of control and 201 % of control
same,T/C,"dose: 0.5 mg/kg/injection, schedule: Q01DX Z (oral), vehicle: carboxymethylcellulose (CMC)",100 % of control
same,T/C,"dose: 0.75 mg/kg/injection, schedule: Q03DX005 (oral), vehicle: saline",111 % of control
same,T/C,"dose: 0.75 mg/kg/injection, schedule: Q03DX006 (oral), vehicle: saline",109 % of control
same,T/C,"dose: 0.9 mg/kg/injection, schedule: Q01DX001 (oral), vehicle: saline",103 % of control and 104 % of control and 108 % of control
same,T/C,"dose: 0.9 mg/kg/injection, schedule: Q07DX002 (oral), vehicle: saline",108 % of control
same,T/C,"dose: 0.9 mg/kg/injection, schedule: Q07DX003 (oral), vehicle: saline",101 % of control
same,T/C,"dose: 0.96 mg/kg/injection, schedule: Q01DX Z (ip), vehicle: alkali diluted with saline",103 % of control
same,T/C,"dose: 0.96 mg/kg/injection, schedule: Q01DX Z (ip), vehicle: other",194 % of control
same,T/C,"dose: 1.0 mg/kg/injection, schedule: Q01DX006 (iv), vehicle: saline",170 % of control
same,T/C,"dose: 1.0 mg/kg/injection, schedule: Q01DX Z (ip), vehicle: carboxymethylcellulose (CMC)",155 % of control
same,T/C,"dose: 1.0 mg/kg/injection, schedule: Q01DX Z (ip), vehicle: saline",164 % of control and 220 % of control
same,T/C,"dose: 1.0 mg/kg/injection, schedule: Q01DX Z (oral), vehicle: carboxymethylcellulose (CMC)",109 % of control
same,T/C,"dose: 1.0 mg/kg/injection, schedule: Q01DX Z (oral), vehicle: saline",121 % of control
same,T/C,"dose: 1.0 mg/kg/injection, schedule: Q01DX Z (sc), vehicle: saline",161 % of control
same,T/C,"dose: 1.0 mg/kg/injection, schedule: Q#A X Z (oral), vehicle: saline",115 % of control
same,T/C,"dose: 1.25 mg/kg/injection, schedule: Q01DX Z (ip), vehicle: carboxymethylcellulose (CMC)",164 % of control
same,T/C,"dose: 1.5 mg/kg/injection, schedule: Q01DX Z (ip), vehicle: saline",163 % of control
same,T/C,"dose: 1.5 mg/kg/injection, schedule: Q03DX005 (oral), vehicle: saline",108 % of control
same,T/C,"dose: 1.5 mg/kg/injection, schedule: Q03DX006 (oral), vehicle: saline",124 % of control and 91 % of control
same,T/C,"dose: 1.75 mg/kg/injection, schedule: Q01DX001 (oral), vehicle: saline",104 % of control and 111 % of control and 117 % of control
same,T/C,"dose: 1.75 mg/kg/injection, schedule: Q07DX002 (oral), vehicle: saline",108 % of control
same,T/C,"dose: 1.75 mg/kg/injection, schedule: Q07DX003 (oral), vehicle: saline",117 % of control
same,T/C,"dose: 1.9 mg/kg/injection, schedule: Q01DX Z (ip), vehicle: alkali diluted with saline",101 % of control
same,T/C,"dose: 1.9 mg/kg/injection, schedule: Q01DX Z (ip), vehicle: other",122 % of control
same,T/C,"dose: 2.0 mg/kg/injection, schedule: Q01DX006 (iv), vehicle: saline",168 % of control and 174 % of control
same,T/C,"dose: 2.0 mg/kg/injection, schedule: Q01DX Z (im), vehicle: saline",113 % of control
same,T/C,"dose: 2.0 mg/kg/injection, schedule: Q01DX Z (ip), vehicle: saline",116 % of control and 117 % of control
same,T/C,"dose: 2.0 mg/kg/injection, schedule: Q01DX Z (oral), vehicle: saline",118 % of control
same,T/C,"dose: 2.2 mg/kg/injection, schedule: Q01DX Z (ip), vehicle: carboxymethylcellulose (CMC)",103 % of control and 114 % of control
same,T/C,"dose: 2.5 mg/kg/injection, schedule: Q01DX Z (ip), vehicle: carboxymethylcellulose (CMC)",117 % of control
same,T/C,"dose: 3.0 mg/kg/injection, schedule: Q01DX Z (ip), vehicle: saline",106 % of control
same,T/C,"dose: 3.0 mg/kg/injection, schedule: Q03DX006 (oral), vehicle: saline",94 % of control and 114 % of control
same,T/C,"dose: 3.3 mg/kg/injection, schedule: Q01DX Z (ip), vehicle: carboxymethylcellulose (CMC)",101 % of control and 90 % of control
same,T/C,"dose: 3.5 mg/kg/injection, schedule: Q01DX001 (oral), vehicle: saline",101 % of control and 105 % of control and 106 % of control
same,T/C,"dose: 3.5 mg/kg/injection, schedule: Q07DX002 (oral), vehicle: saline",97 % of control
same,T/C,"dose: 3.5 mg/kg/injection, schedule: Q07DX003 (oral), vehicle: saline",109 % of control
same,T/C,"dose: 4.0 mg/kg/injection, schedule: Q01DX006 (iv), vehicle: saline",88 % of control
same,T/C,"dose: 4.0 mg/kg/injection, schedule: Q01DX Z (sc), vehicle: saline",96 % of control
same,T/C,"dose: 4.9 mg/kg/injection, schedule: Q01DX Z (ip), vehicle: carboxymethylcellulose (CMC)",90 % of control
same,T/C,"dose: 6.0 mg/kg/injection, schedule: Q03DX005 (oral), vehicle: saline",103 % of control
same,T/C,"dose: 6.0 mg/kg/injection, schedule: Q03DX006 (oral), vehicle: saline",124 % of control
same,T/C,"dose: 7.0 mg/kg/injection, schedule: Q01DX001 (oral), vehicle: saline",106 % of control and 120 % of control
same,T/C,"dose: 7.0 mg/kg/injection, schedule: Q07DX003 (oral), vehicle: saline",117 % of control
same,T/C,"dose: 8.0 mg/kg/injection, schedule: Q01DX Z (oral), vehicle: saline",156 % of control and 175 % of control
same,T/C,"dose: 8.0 mg/kg/injection, schedule: Q#A X Z (oral), vehicle: saline",152 % of control
same,T/C,"dose: 16.0 mg/kg/injection, schedule: Q01DX Z (oral), vehicle: saline",122 % of control
same,T/C,"dose: 28.0 mg/kg/injection, schedule: Q07DX003 (oral), vehicle: saline",153 % of control
same,T/C,"dose: 32.0 mg/kg/injection, schedule: Q01DX Z (oral), vehicle: saline",95 % of control
same,T/C,"dose: 112.0 mg/kg/injection, schedule: Q07DX003 (oral), vehicle: saline",111 % of control
same,T/C,"dose: 224.0 mg/kg/injection, schedule: Q01DX001 (oral), vehicle: saline",120 % of control
same,T/C,"dose: 448.0 mg/kg/injection, schedule: Q01DX001 (oral), vehicle: saline",108 % of control
same,T/C,"dose: 600.0 mg/kg/injection, schedule: Q01DX001 (oral), vehicle: saline",107 % of control
same,T/C,"dose: 800.0 mg/kg/injection, schedule: Q01DX001 (oral), vehicle: saline",113 % of control
same,T/C,"dose: 1000.0 mg/kg/injection, schedule: Q01DX001 (oral), vehicle: saline",110 % of control
O=C(CCl)N1CC2CCC(CC2)C1,T/C,[1],97 % of control
CCC(C)CC=O (configuration not stated),T/C,"dose: 50.0 mg/kg/injection, schedule: Q01DX001 (ip), vehicle: carboxymethylcellulose (CMC)",95 % of control
same,T/C,"dose: 100.0 mg/kg/injection, schedule: Q01DX001 (ip), vehicle: carboxymethylcellulose (CMC)",98 % of control
same,T/C,"dose: 200.0 mg/kg/injection, schedule: Q01DX001 (ip), vehicle: carboxymethylcellulose (CMC)",93 % of control
same,T/C,"dose: 400.0 mg/kg/injection, schedule: Q01DX001 (ip), vehicle: carboxymethylcellulose (CMC)",101 % of control
N#CC(=C(c1ccccc1)c1ccccc1)c1ccccc1,T/C,[1],108 % of control
same,T/C,"dose: 200.0 mg/kg/injection, schedule: Q04DX003 (ip), vehicle: Klucel (hydroxypropylcellulose) (HPC)",108 % of control
same,T/C,"dose: 400.0 mg/kg/injection, schedule: Q04DX003 (ip), vehicle: Klucel (hydroxypropylcellulose) (HPC)",106 % of control
C=NNc1nc2ccccc2s1,T/C,"dose: 100.0 mg/kg/injection, schedule: Q04DX003 (ip), vehicle: gum acacia",96 % of control
same,T/C,"dose: 200.0 mg/kg/injection, schedule: Q04DX003 (ip), vehicle: gum acacia",88 % of control
